pEC50: −log10 of the molar value.
Key:
[1] = molecular target: T1, GST-α1β1γ1 AMPK in solution (Homo sapiens, UniProt Q13131+Q9Y478); assay: In solution SAMS kinase assay, HEK293T/17-expressed GST-α1β1γ1 eluted from glutathione Sepharose; assay type: biochemical; conditions: for pEC50: 0-30 µM activator
T1 construct: triply transfected with full-length AMPK α1 or α2 (NH2-terminal GST fusion, pDEST27 vector); full-length AMPK α1 or α2 (NH2-terminal GST fusion, pDEST27 vector), β1 or β2 (COOH-terminal FLAG fusion, pcDNA3.1 vector); FLAG (C); made in house; host or cells: HEK293T/17 cells, transient triple transfection
Protocol: (§1) Adherent HEK293T/17 cells at ∼50% confluency were triply transfected with full-length AMPK α1 or α2 (NH2-terminal GST fusion, pDEST27 vector), β1 or β2 (COOH-terminal FLAG fusion, pcDNA3.1 vector), and γ1, γ2 or γ3 (NH2-terminal HA fusion, pMT2 vector) in the presence of FuGENE HD transfection reagent (Promega) as per the manufacturers protocol. Cells were harvested 48 hours post-transfection by first gently washing in ice cold phosphate buffered saline (PBS; Sigma–Aldrich), then scraping in ice cold lysis buffer (50 mM TRIS pH 7.5, 150 mM NaCl, 10% (v/v) glycerol, 50 mM NaF, 5 mM sodium pyrophosphate, 1% (v/v) Triton X-100, cOmplete protease inhibitor cocktail). Lysates were clarified by centrifugation (16 000g, 3 min, 4°C), flash frozen in liquid N2 and stored at −80°C until analysis. For radioactive kinase assays, AMPK was immobilised on glutathione Sepharose 4B resin (GE Healthcare) by incubation with lysates for 1.5 h at 4°C. Following centrifugation (1000g, 3 min, 4°C), the resin was washed twice in purification buffer (50 mM HEPES pH 7.4, 150 mM NaCl, 10% (v/v) glycerol, 0.02% (v/v) Tween-20), once in 50 mM HEPES pH 7.4 with 0.02% (v/v) Tween-20, then resuspended to a 50% slurry with 50 mM HEPES pH 7.4 and 10 µl added to the activity assays. For in solution kinase assays, α1β1γ1 AMPK was eluted from glutathione-Sepharose by incubating with purification buffer supplemented with 40 mM reduced glutathione (Sigma–Aldrich).
(§2) AMPK activity was determined by phosphorylation of the SAMS peptide (Purar Chemicals, sequence: NH2-HMRSAMSGLHLVKRR-COOH) in a 25 µl reaction volume containing 100 µM SAMS peptide, 5 mM MgCl2, 200 µM ATP, [γ-^32P]-ATP (PerkinElmer) and assay buffer (50 mM HEPES pH 7.4, 1 mM DTT and 0.02% (v/v) Tween-20) and purified AMPK. Phosphotransferase activity was conducted at 30°C for 10 min and reactions were quenched by spotting 15 µl onto phosphocellulose ion-exchange chromatography paper (made in-house), followed by repeated washes in 1% H3PO4 (Merck Millipore). Ultima Gold liquid scintillation fluid (5 ml; PerkinElmer) was added to vials containing dried phosphocellulose papers, and the level of ^32P-transfer to the SAMS peptide was determined using a Tri-Carb 2900TR liquid scintillation counter (PerkinElmer).
⍺1β1γ1 – in solution E. coli-expressed ⍺2β1γ1 […]
log [compound] (M) log [compound] (M)
Compound EC (nM) Max. fold Compound EC50 (nM) Max. fold
Supplementary Figure 3. In solution activation kinetics for AMPK complexes. Related to Figure 2. Activities measured in the presence of 0-30 µM AMPK activators. […]

human GST-AMPK α1β1γ1 = molecular target: T2, human GST-AMPK α1β1γ1 (Homo sapiens, UniProt Q13131+Q9Y478); assay: Radiolabel SAMS kinase assay, GST-AMPK from HEK293T/17 cells immobilised on glutathione-Sepharose; assay type: biochemical; conditions: for Max. fold activation: immobilised α1β1γ1; for pEC50: immobilised α1β1γ1, 0–30 µM activator
T2 construct: triply transfected with full-length AMPK α1 or α2 (NH2-terminal GST fusion, pDEST27 vector); full-length AMPK α1 or α2 (NH2-terminal GST fusion, pDEST27 vector), β1 or β2 (COOH-terminal FLAG fusion, pcDNA3.1 vector); FLAG (C); made in house; host or cells: HEK293T/17 cells, transient triple transfection
Source text: We generated a series of compounds to investigate whether modification of the SC4 2-hydroxybiphenyl LHS fragment affects isoform selectivity, some of which (MSG008-MSG011) are presented in Table 1. We also synthesised compound MSG012 (example I-3-54 [32]), which was reported to activate α2β2γ1 with ∼100-fold greater potency compared with α1β1γ1. MSG012 differs from SC4 by substitution of the 2-hydroxyphenyl LHS fragment with 3-cyclohexen-4-yl-1-carboxylic acid, and 2-methylbenzoic acid RHS fragment with 1-hydroxy-N,N-dimethylcyclohexan-4-yl-1-carboxamide. Our initial screen involved measuring the activity of recombinant human GST-AMPK complexes expressed in HEK293T/17 cells and immobilised on glutathione-Sepharose (Supplementary Figure S1). Enzyme activity was measured by radiolabelling the synthetic SAMS peptide substrate in the absence or presence of 1 µM compound. Consistent with our previous characterisation, SC4 activated α1β1γ1, α2β1γ1 and α2β2γ1 >2.3-fold, and weakly activated α1β2γ1 1.3-fold (Figure 1A). […] The γ isoform had little influence on AMPK activation by MSG011 as most γ2 and γ3 complexes were activated >2.2-fold at 1 µM, with α1β2γ2 being the only exception (1.6-fold activation). […] Accordingly, MSG010, MSG011 and MSG012 can be classified as pan AMPK activators.
as §1, §2

T1 sequence (Q13131 whole entry, the tested form may be a part): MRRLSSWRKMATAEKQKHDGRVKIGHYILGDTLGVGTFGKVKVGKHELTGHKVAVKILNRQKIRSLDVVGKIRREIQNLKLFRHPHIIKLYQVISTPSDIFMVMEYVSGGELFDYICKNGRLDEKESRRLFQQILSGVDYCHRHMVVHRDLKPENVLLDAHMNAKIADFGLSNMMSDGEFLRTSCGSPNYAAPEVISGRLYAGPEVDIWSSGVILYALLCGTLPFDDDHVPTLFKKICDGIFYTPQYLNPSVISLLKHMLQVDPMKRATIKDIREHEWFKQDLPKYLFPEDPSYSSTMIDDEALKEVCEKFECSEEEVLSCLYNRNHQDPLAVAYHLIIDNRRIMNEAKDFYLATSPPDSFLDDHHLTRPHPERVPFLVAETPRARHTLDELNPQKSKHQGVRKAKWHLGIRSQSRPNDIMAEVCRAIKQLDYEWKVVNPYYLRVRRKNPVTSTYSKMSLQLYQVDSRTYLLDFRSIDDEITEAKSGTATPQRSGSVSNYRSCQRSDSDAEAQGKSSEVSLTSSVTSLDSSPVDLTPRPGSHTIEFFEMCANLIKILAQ
T1 sequence (Q9Y478 whole entry, the tested form may be a part): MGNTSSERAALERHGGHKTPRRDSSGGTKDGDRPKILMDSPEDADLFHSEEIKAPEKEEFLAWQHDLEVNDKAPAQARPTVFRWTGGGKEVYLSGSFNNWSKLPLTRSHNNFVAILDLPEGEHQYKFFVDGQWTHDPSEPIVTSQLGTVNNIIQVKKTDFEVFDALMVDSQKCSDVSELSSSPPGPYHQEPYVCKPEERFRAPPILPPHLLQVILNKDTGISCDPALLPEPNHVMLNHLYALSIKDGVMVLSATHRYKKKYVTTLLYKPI
T1 sequence (P54619 whole entry partner, the tested form may be a part): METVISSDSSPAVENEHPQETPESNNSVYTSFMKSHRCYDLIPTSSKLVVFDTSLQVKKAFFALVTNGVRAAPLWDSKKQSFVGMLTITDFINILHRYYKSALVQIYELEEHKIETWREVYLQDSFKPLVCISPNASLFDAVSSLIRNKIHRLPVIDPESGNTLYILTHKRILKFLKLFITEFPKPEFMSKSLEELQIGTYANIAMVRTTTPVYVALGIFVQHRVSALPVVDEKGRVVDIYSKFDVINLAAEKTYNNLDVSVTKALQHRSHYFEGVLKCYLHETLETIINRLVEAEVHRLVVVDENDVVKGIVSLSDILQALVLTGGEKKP
T2 sequence (Q13131 whole entry, the tested form may be a part): as the sequence (Q13131 whole entry, the tested form may be a part) above
T2 sequence (Q9Y478 whole entry, the tested form may be a part): as the sequence (Q9Y478 whole entry, the tested form may be a part) above
T2 sequence (P54619 whole entry partner, the tested form may be a part): as the sequence (P54619 whole entry partner, the tested form may be a part) above

SMILES	Max. fold activation [1]	pEC50 [1]	Max. fold activation (human GST-AMPK α1β1γ1)	pEC50 (human GST-AMPK α1β1γ1)	fold AMPK activation relative to vehicle (human GST-AMPK α1β1γ1; 1 µM compound)
O[C@@H]1CO[C@H]2[C@@H]1OC[C@H]2Oc1nc2nc(-c3ccc(-c4ccccc4)cc3)c(Cl)cc2[nH]1 [MK-8722, reference compound]	1.8 fold	5.76	2.2 fold	5.92	
CC(=O)NC1CC=C(c2ccc(-c3nc4nc(Oc5ccc(C)c(C(=O)O)c5)[nH]c4cc3Cl)cc2)CC1 (stereo not drawn) [MSG011, 5-((5-(4′-Acetamido-2′,3′,4′,5′-tetrahydro-[1,1′-biphenyl]-4-yl)-6-chloro-1H-imidazo[4,5-b]pyridin-2-yl)oxy)-2-methylbenzoic acid]	2.6 fold	7.60	3.1 fold	6.85	> 2.2 fold
